Laboratory results reported in patent US5770563A, “Heparin- and sulfatide binding peptides from the type I repeats of human thrombospondin and conjugates thereof” (The United States of America as represented by the …, priority 1995, dated 1998).
Like-named read-outs stand apart in the source and are kept apart here. Square brackets hold non-standard residues; d marks the D form. Peptide text beside a SMILES is read from it. Ava = NCCCCC(=O)O; Mpa = O=C(O)CCS

Columns and labels:
[1] = target: basic fibroblast growth factor (FGF-2) binding to heparin; experiment: Inhibition of 125I-bFGF binding to heparin-BSA conjugate
Procedure: Binding of ^125 I-bFGF to heparin was determined using an immobilized heparin-BSA conjugate as previously described (Guo, et al. (1992) Proc. Nat'l Acad. Sci. 89:3040-3044). ^125 I-bFGF, prepared as described by Neufeld, et al, (1985), J. Biol. Chem. 260:13860-13868, was added described above, and incubated for 2 hours at 25° C. Bound radioactivity was determined after washing and cutting the wells from the plate. FIGS. 40A, B and C show the inhibition of ^125 I-bFGF binding to heparin by a number of TSP peptide analogs.

[2] = target: thrombospondin binding to heparin; experiment: Inhibition of 125I-thrombospondin binding to immobilized heparin-BSA; design: species or system human; conditions: for inhibition of thrombospondin binding to heparin, in words: free peptide
Procedure: (§1) The peptides were tested as inhibitors of laminin, thrombospondin or apolipoprotein E binding to a heparin-bovine serum albumen conjugate or to a sulfatide in a solid phase assay essentially following the procedure described in Zabrenetzky et al., Cancer Res., Vol. 50, pages 5937-5942 (1990). Sulfatide (0.2 μg/well for thrombospondin binding, 0.6 μg/well for laminin binding) was immobilized in a mixture of 50 ng of phosphatidyl choline, and 30 ng of cholesterol on polyvinyl chloride microtiter plates. Heparin-BSA (0.2 μg/well) was absorbed onto polyvinyl chloride microtiter plate wells by incubation of 50 μl of Dulbecco's PBS for 2 h at 37°. The wells were emptied and filled with 50 mM tris, pH 7.8 containing 150 mM NaCl, 1 mM CaCl2, 0.025% NaN3, and 1% BSA. After 30 minutes, the wells were emptied and 30 μl of various concentrations of potential inhibitory peptides diluted in the same buffer or buffer alone and 30 μl of ^125 I-labeled laminin, thrombospondin or apolipoprotein E (0.2 μg/ml) were added to each well. After 3 hours at 4°, the wells were washed 6 times with 0.15M NaCl, cut from the plate and the bound radioactivity counted. FIGS. 1A-B and 2A-B show the level of thrombospondin binding to sulfatide and heparin-BSA, respectively, in the presence of increasing concetrations of the peptides listed. FIGS. 3 and 4A-B show the level of laminin binding to sulfatide and heparin-BSA, respectively, in the presence of increasing concentrations of the listed peptides.
Microtiter plate wells were coated with heparin-BSA. Heparin-BSA (0.2 μg/well) was adsorbed by incubation in 50 μl of Dulbecco's PBS for 2 h at 370. The wells were emptied, filled with tris-BSA, and incubated for 30 to 60 minutes. The buffer was removed, and labelled thrombospondin was added and incubated in the wells for 3 h at 40. The wells were emptied and washed 4 times with saline. The bottoms of the wells were cut from the plate and counted to quantify thrombospondin binding. Inhibition of thrombospondin binding was determined using peptides diluted in 30 μl of 50 mM tris buffer, pH 7.8, containing 110 mM NaCl, 1 mM CaCl2, 0.025% NaN3, and 1% BSA or buffer alone and 30 μl of ^125 I-labeled TSP (0.2 μg/ml).

[3] = target: laminin binding to sulfatide; experiment: Inhibition of 125I-laminin binding to sulfatide; design: species or system mouse; conditions: Table 2, free peptide
Procedure: as §1

[4] = target: thrombospondin binding to sulfatide; experiment: Inhibition of 125I-thrombospondin binding to sulfatide; design: species or system human; conditions: for IC50: Table 1, free peptide
Procedure: as §1

[5] = target: laminin binding to heparin; experiment: Inhibition of 125I-laminin binding to heparin-BSA; design: species or system mouse; conditions: Table 2, free peptide
Procedure: as §1

[6] = retro-inverso peptides, read-out: IC50 for Inhibition of Binding
[7] = retro-inverso peptides, free, read-out: IC50 Inhibitory Activity, Free Peptide
[8] = Table 1, free peptide, read-out: IC50 Heparin Binding, inhibition of 125I-thrombospondin binding

| SMILES | IC50 [3] | IC50 [4] | IC50 [2, 8] | IC50 [5] | further results |
| --- | --- | --- | --- | --- | --- |
| CC(=O)N[C@H](C)C(=O)N[C@H](C)C(=O)N[C@H](Cc1c[nH]c2ccccc12)C(=O)N[C@H](Cc1c[nH]cn1)C(=O)N[C@H](CO)C(=O)N[C@H](Cc1c[nH]c2ccccc12)C(=O)NCC(=O)N[C@H](C)C(=O)N[C@H](CCC(N)=O)C(=O)N[C@H](CCCCN)C(=O)N[C@H](C)C(=O)N[C@H](CCCCN)C(=O)N[C@H](CCCCN)C(N)=O [Peptide 537, ri-amKKAKQAGWSHWAAac] (Ac-[dA][dA][dW][dH][dS][dW]G[dA][dQ][dK][dA][dK][dK]-NH2) |  |  |  |  | IC50 [1, 6]: 0.1 µM |
| CC(=O)N[C@H](CS)C(=O)N[C@H](CO)C(=O)N[C@H](CO)C(=O)N[C@H](Cc1c[nH]c2ccccc12)C(=O)N1CCC[C@@H]1C(=O)N[C@H](CO)C(=O)N[C@H](Cc1c[nH]c2ccccc12)C(=O)N[C@H](Cc1c[nH]cn1)C(=O)N[C@H](CO)C(=O)N[C@H](Cc1c[nH]c2ccccc12)C(=O)NCC(=O)NCC(=O)N[C@H](C)C(=O)N[C@H](CCC(N)=O)C(=O)N[C@H](CCCCN)C(=O)N[C@H](C)C(=O)N[C@H](CCCNC(=N)N)C(=O)N[C@H](CCCCN)C(N)=O [Peptide 476, ri-amKRAKQAGGWSHWSPWSSCac] (Ac-[dC][dS][dS][dW][dP][dS][dW][dH][dS][dW]GG[dA][dQ][dK][dA][dR][dK]-NH2) |  |  |  |  | IC50 [1, 6]: 0.22 µM; IC50 [2, 7]: 0.03 µM |
| CC[C@H](C)[C@H](NC(=O)CNC(=O)[C@H](CC(N)=O)NC(=O)CNC(=O)[C@H](CS)NC(=O)[C@H](CO)NC(=O)[C@@H](N)[C@@H](C)O)C(=O)N[C@@H](CCC(N)=O)C(=O)N[C@@H](CCC(N)=O)C(=O)N[C@@H](CCCNC(=N)N)C(=O)O [Peptide 206, TSCGNGIQQR] (H-TSCGNGIQQR-OH) | > 200 µM | > 200 µM | > 200 µM | > 200 µM |  |
| CC(C)[C@H](NC(=O)[C@H](CO)NC(=O)[C@@H](N)CS)C(=O)N[C@H](C(=O)O)[C@@H](C)O [Peptide 234, CSVT] (H-CSVT-OH) | > 200 µM | > 200 µM | > 200 µM | > 200 µM | inhibition of thrombospondin binding to heparin, in words [2]: inactive |
| CC(=O)N[C@H](C)C(=O)N[C@H](C)C(=O)N[C@H](Cc1c[nH]c2ccccc12)C(=O)N[C@H](Cc1c[nH]cn1)C(=O)N[C@H](CO)C(=O)N[C@H](Cc1c[nH]c2ccccc12)C(=O)NCC(=O)N[C@H](C)C(=O)N[C@H](CCC(N)=O)C(=O)N[C@H](CCCCN)C(=O)N[C@H](Cc1ccccc1)C(=O)N[C@H](CCCNC(=N)N)C(=O)N[C@H](CCCCN)C(N)=O [Peptide 530, ri-amKRFKQAGWSHWAAac] (Ac-[dA][dA][dW][dH][dS][dW]G[dA][dQ][dK][dF][dR][dK]-NH2) |  |  |  |  | IC50 [1, 6]: 0.65 µM |
| CC(C)[C@H](NC(=O)[C@H](CO)NC(=O)[C@@H](N)CO)C(=O)N[C@H](C(=O)O)[C@@H](C)O [Peptide 235, SSVT] (H-SSVT-OH) | > 200 µM | > 200 µM | > 200 µM | > 200 µM |  |
| CC(C)[C@H](NC(=O)[C@H](CO)NC(=O)[C@@H](N)CO)C(=O)N[C@H](C(=O)N[C@@H](CS)C(=O)NCC(=O)O)[C@@H](C)O [Peptide 237, SSVTCG] (H-SSVTCG-OH) | 85 µM | 30 µM | 58 µM | 100 µM | fold less active than CSVTCG ([4]; thrombospondin binding to sulfatide): 2 fold; inhibition of thrombospondin binding to heparin, in words [2]: very weak inhibitor |
| CC(C)[C@H](N)C(=O)N[C@H](C(=O)N[C@@H](CS)C(=O)NCC(=O)NCC(=O)NCC(=O)N[C@H](C(=O)N[C@@H](CCC(N)=O)C(=O)N[C@@H](CCCCN)C(=O)N[C@@H](CCCNC(=N)N)C(=O)O)C(C)C)[C@@H](C)O [Peptide 204, VTCGGGVQKR] (H-VTCGGGVQKR-OH) | > 200 µM | > 200 µM | > 200 µM | > 200 µM |  |
| CC(C)[C@H](N)C(=O)N[C@H](C(=O)N[C@@H](CS)C(=O)NCC(=O)O)[C@@H](C)O [Peptide 203, VTCG] (H-VTCG-OH) | > 200 µM | > 200 µM | > 200 µM | > 200 µM | inhibition of thrombospondin binding to heparin, in words [2]: inactive |
| CC(C)[C@H](NC(=O)[C@H](CO)NC(=O)[C@H](CS)NC(=O)[C@H](CO)NC(=O)[C@@H](N)CO)C(=O)N[C@H](C(=O)O)[C@@H](C)O [Peptide 238, SSCSVT] (H-SSCSVT-OH) | > 200 µM | > 100 µM | 85 µM | > 200 µM | inhibition of thrombospondin binding to heparin, in words [2]: weak inhibition of thrombospondin binding |
| CC(=O)N[C@@H](CCCCN)C(=O)N[C@@H](CCCNC(=N)N)C(=O)N[C@@H](C)C(=O)N[C@@H](CCCCN)C(=O)N[C@@H](CCC(N)=O)C(=O)N[C@@H](C)C(=O)NCC(=O)NCC(=O)N[C@@H](Cc1c[nH]c2ccccc12)C(=O)N[C@@H](CO)C(=O)N[C@@H](Cc1c[nH]cn1)C(=O)N[C@@H](Cc1c[nH]c2ccccc12)C(=O)N[C@@H](C)C(=O)N[C@@H](C)C(=O)N[C@@H](CS)C(N)=O [acKRAKQAGGWSHWAACam] (Ac-KRAKQAGGWSHWAAC-NH2) |  |  |  |  | IC50 ([1]; L-forward peptides, read-out: IC50 Inhibitory Activity): 0.41 µM; IC50 ([2]; L-forward peptides, free, read-out: IC50 Inhibitory Activity, Free Peptide): 0.045 µM |
| CC(C)C[C@H](NC(=O)[C@H](CCCNC(=N)N)NC(=O)[C@H](CO)NC(=O)[C@H](CCCNC(=N)N)NC(=O)[C@H](CCCCN)NC(=O)[C@H](CCC(N)=O)NC(=O)[C@@H](NC(=O)CNC(=O)CNC(=O)CNC(=O)[C@H](CS)NC(=O)[C@@H](NC(=O)[C@@H](N)C(C)C)[C@@H](C)O)C(C)C)C(=O)O [Peptide 245, VTCGGGVQKRSRL] (H-VTCGGGVQKRSRL-OH) | > 200 µM | > 200 µM | > 200 µM | ~200 µM | inhibition of thrombospondin binding to heparin, in words [2]: inactive |
| C[C@@H](NC(=O)CCS)C(=O)N[C@H](C)C(=O)N[C@H](Cc1c[nH]c2ccccc12)C(=O)N[C@H](Cc1c[nH]cn1)C(=O)N[C@H](CO)C(=O)N[C@H](Cc1c[nH]c2ccccc12)C(=O)NCCCCC(=O)N[C@H](C)C(=O)N[C@H](CCC(N)=O)C(=O)N[C@H](CCCCN)C(=O)N[C@H](C)C(=O)N[C@H](CCCNC(=N)N)C(=O)N[C@H](CCCCN)C(N)=O [ri-amKRAKQUWSHWAAtp] ([Mpa][dA][dA][dW][dH][dS][dW][Ava][dA][dQ][dK][dA][dR][dK]-NH2) |  |  |  |  | IC50 [2, 7]: 0.046 µM |
| CC(=O)N[C@H](C)C(=O)N[C@H](C)C(=O)N[C@H](Cc1c[nH]c2ccccc12)C(=O)N[C@H](Cc1c[nH]cn1)C(=O)N[C@H](CO)C(=O)N[C@H](Cc1c[nH]c2ccccc12)C(=O)NCC(=O)N[C@H](C)C(=O)N[C@H](CCC(N)=O)C(=O)N[C@H](CCCNC(=N)N)C(=O)N[C@H](C)C(=O)N[C@H](CCCNC(=N)N)C(=O)N[C@H](CCCCN)C(N)=O [Peptide 536, ri-amKRARQAGWSHWAAac] (Ac-[dA][dA][dW][dH][dS][dW]G[dA][dQ][dR][dA][dR][dK]-NH2) |  |  |  |  | IC50 [1, 6]: 0.95 µM |
| CC(C)[C@H](NC(=O)[C@H](CO)NC(=O)[C@H](C)N)C(=O)N[C@H](C(=O)O)[C@@H](C)O [Peptide 236, ASVT] (H-ASVT-OH) | > 200 µM | > 200 µM | > 200 µM | > 200 µM |  |
| CC[C@H](C)[C@H](NC(=O)[C@@H](NC(=O)CNC(=O)[C@H](CC(=O)O)NC(=O)CNC(=O)[C@H](CS)NC(=O)[C@@H](NC(=O)[C@@H](N)C(C)C)[C@@H](C)O)C(C)C)C(=O)N[C@H](C(=O)N[C@@H](CCCNC(=N)N)C(=O)O)[C@@H](C)O [Peptide 205, VTCGDGVITR] (H-VTCGDGVITR-OH) | > 200 µM | > 200 µM | > 200 µM | > 200 µM |  |
| CC(=O)N[C@H](C)C(=O)N[C@H](C)C(=O)N[C@H](Cc1c[nH]c2ccccc12)C(=O)N[C@H](Cc1c[nH]cn1)C(=O)N[C@H](CO)C(=O)N[C@H](Cc1c[nH]c2ccccc12)C(=O)NCC(=O)N[C@H](C)C(=O)N[C@H](CCC(N)=O)C(=O)N[C@H](CCCCN)C(=O)N[C@H](C)C(=O)N[C@H](CCCNC(=N)N)C(=O)N[C@H](CCCCN)C(N)=O [Peptide 529, ri-amKRAKQAGWSHWAAac] (Ac-[dA][dA][dW][dH][dS][dW]G[dA][dQ][dK][dA][dR][dK]-NH2) |  |  |  |  | IC50 [1, 6]: 0.37 µM |
